# Laboratory results as given in PMC5011342, “A high throughput drug screening assay to identify compounds that promote oligodendrocyte differentiation using acutely dissociated and purified oligodendrocyte precursor cells” (BMC Research Notes, 2016).
# Read-outs that look alike come from different tables or passages of the source.
# Key:
# [1] = system: acutely dissociated and purified rat OPCs; assay: Acute OL differentiation assay (MBP expression/cell, immunofluorescent image quantification); type: cell-based; settings: sheet "All OLga data"
# Procedure, shortened: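 This acute differentiation assay used purified rat OPCs from postnatal day 6–7 pups, seeded into PDL/laminin-coated 96-well plates in differentiation medium lacking PDGF and FGF. Compounds were applied in quadruplicate after a 1–2 h preincubation at 37 °C, 10 % CO2, with 0.1 % DMSO negative and 40 ng/ml T3 positive controls in eight wells. After fixation on DIV4, anti-MBP immunofluorescence images yielded MBP expression/cell.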
# expanded OPCs = assay: cells; settings: for viability at 0.1 µM / viability at 1 µM / viability at 10 µM: Rattus norvegicus, 72 h
# Procedure, shortened: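 Toxicity screen: compounds added at 0.1, 1 and 10 µM to PDGF-AA-expanded OPCs in 96-well plates, 3-day incubation at 37 °C, 10% CO2, then alamarBlue 1:10 for 4 h with fluorescence readout. Results set screening doses of 10/2, 2/0.4 or 0.4/0.08 µM.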
# [2] = Rattus norvegicus, test compound at 2 uM, NCC library screen, relative to quetiapine, read-out: 2 uM (% Quet)
# [3] = Rattus norvegicus, test compound at 10 uM, NCC library screen, relative to quetiapine, read-out: 10 uM (% Quet)
# [4] = alamarBlue viability of expanded OPCs, compound at 0.1 µM, relative to DMSO control
# [5] = alamarBlue viability of expanded OPCs, compound at 1 µM, relative to DMSO control
# [6] = alamarBlue viability of expanded OPCs, compound at 10 µM, relative to DMSO control
# [7] = Rattus norvegicus, 2 uM test compound, relative to quetiapine, read-out: OL differentiation, 2 uM (% Quet)
# [8] = Rattus norvegicus, 10 uM test compound, relative to quetiapine, read-out: OL differentiation, 10 uM (% Quet)
# [9] = read-out: 0.1 µM (% DMSO), alamarBlue viability, NCC library compound at 0.1 µM, sheet "All Tox data"
# [10] = read-out: 1 µM (% DMSO), alamarBlue viability, NCC library compound at 1 µM, sheet "All Tox data"
# [11] = read-out: 10 µM (% DMSO), alamarBlue viability, NCC library compound at 10 µM, sheet "All Tox data"
# [12] = Rattus norvegicus, test compound at 2 uM, MBP expression relative to quetiapine, NCC library screen, read-out: 2 uM (% Quet)
# [13] = Rattus norvegicus, test compound at 10 uM, MBP expression relative to quetiapine, NCC library screen, read-out: 10 uM (% Quet)
# [14] = test compound at 2 uM, NCC library screen, relative to quetiapine
# [15] = test compound at 10 uM, NCC library screen, relative to quetiapine
# [16] = alamarBlue viability, NCC library compound at 0.1 µM, sheet "All Tox data"
# [17] = alamarBlue viability, NCC library compound at 1 µM, sheet "All Tox data"
# [18] = alamarBlue viability, NCC library compound at 10 µM, sheet "All Tox data"
# [19] = read-out: 0.1 µM (% DMSO), alamarBlue viability of expanded OPCs, compound at 0.1 µM, sheet All Tox data
# [20] = read-out: 1 µM (% DMSO), alamarBlue viability of expanded OPCs, compound at 1 µM, sheet All Tox data
# [21] = read-out: 10 µM (% DMSO), alamarBlue viability of expanded OPCs, compound at 10 µM, sheet All Tox data
Structure (SMILES),"activation at 2 µM [1, 2] [%]","activation at 10 µM [1, 3] [%]",0.1 µM (% DMSO) (expanded OPCs; [4]),1 µM (% DMSO) (expanded OPCs; [5]),10 µM (% DMSO) (expanded OPCs; [6]),"activation at 2 µM [1, 7] [%]","activation at 10 µM [1, 8] [%]",other results
COc1ccc(OC)c(C(O)CNC(=O)CN)c1 (centres unmarked) [Midodrine],-2.5,6.3,90.8,88.9,89.1,,,
C=C1C[C@@H]2[C@H](CC[C@]3(C)C(=O)CC[C@@H]23)[C@@]2(C)C=CC(=O)C=C12 [Exemestane],,,,,,-24.2,-57.2,viability at 0.1 µM (expanded OPCs; [9]): 92.7%; viability at 1 µM (expanded OPCs; [10]): 95.1%; viability at 10 µM (expanded OPCs; [11]): 102%
C[C@]12CC[C@H](O)CC1=CC[C@@H]1[C@@H]2CC[C@]2(C)C(=O)CC[C@@H]12 [Dehydroepiandrosterone],-23.8,-57.9,,,,,,viability at 0.1 µM (expanded OPCs; [9]): 92%; viability at 1 µM (expanded OPCs; [10]): 87.5%; viability at 10 µM (expanded OPCs; [11]): 83.1%
C[N+]1(C)CCC(OC(=O)C(O)(c2ccccc2)C2CCCC2)C1 (centres unmarked) [Glycopyrrolate],7.1,19.5,100.4,104.4,113.1,,,"activation at 2 µM [1, 12]: 26.7%; activation at 10 µM [1, 13]: 27.6%; viability at 0.1 µM (expanded OPCs; [9]): 96.7%; viability at 1 µM (expanded OPCs; [10]): 91.4%; viability at 10 µM (expanded OPCs; [11]): 115%"
Oc1c(Cl)cc(Cl)c2cccnc12 [Chloroxine],,,24.3,10.2,8.9,,,"activation at 0.08 µM ([1]; Rattus norvegicus, test compound at 0.08 uM, NCC library screen, relative to quetiapine, read-out: 0.08 uM (% Quet)): -87.1%"
O=C(C1CCCCC1)N1CC(=O)N2CCc3ccccc3C2C1 (centres unmarked) [Praziquantel],0.6,-9.5,85.2,85.1,85.6,,,
COC(=O)N1CCN(C(=O)Cc2ccc(Cl)c(Cl)c2)C(CN2CCCC2)C1 (centres unmarked) [GR 89696],,,,,,,,"2 uM (% Quet) [1, 14]: 34.9 % Quet; 10 uM (% Quet) [1, 15]: 63.5 % Quet; 0.1 µM (% DMSO) (expanded OPCs; [16]): 94.6 % DMSO; 1 µM (% DMSO) (expanded OPCs; [17]): 83.7 % DMSO; 10 µM (% DMSO) (expanded OPCs; [18]): 70.7 % DMSO"
COc1c(N2CCNC(C)C2)c(F)cc2c(=O)c(C(=O)O)cn(C3CC3)c12 (centres unmarked) [Gatifloxacin],,,99.4,98.0,96.4,,,"activation at 2 µM [1, 12]: 34.6%; activation at 10 µM [1, 13]: 24.6%"
O=C(NCCN1CCOCC1)c1ccc(Cl)cc1 [Moclobemide],,,,,,9.8,-9.7,viability at 0.1 µM (expanded OPCs; [19]): 99.2%; viability at 1 µM (expanded OPCs; [20]): 110%; viability at 10 µM (expanded OPCs; [21]): 113%
OC[C@H]1O[C@@H](n2cnc3c(NC4CCCC4)nc(Cl)nc32)[C@H](O)[C@@H]1O [CCPA],,,,,,,,"2 uM (% Quet) [1, 14]: -30.5 % Quet; 10 uM (% Quet) [1, 15]: -64.0 % Quet; 0.1 µM (% DMSO) (expanded OPCs; [16]): 87.1 % DMSO; 1 µM (% DMSO) (expanded OPCs; [17]): 88.1 % DMSO; 10 µM (% DMSO) (expanded OPCs; [18]): 93.0 % DMSO"
CC(=O)Nc1ccc(CC(=O)O)cc1 [Actarit],,,,,,4.4,-11.3,viability at 0.1 µM (expanded OPCs; [19]): 96.4%; viability at 1 µM (expanded OPCs; [20]): 104%; viability at 10 µM (expanded OPCs; [21]): 102%
CCCNC(C)C(=O)Nc1ccccc1C (centres unmarked) [Prilocaine],2.7,-1.2,89.7,89.9,89.6,,,
N[C@@H]1CON=C1O [Cycloserine],,,89.7,97.0,89.5,4.1,13.9,"activation at 2 µM [1, 12]: -13.8%; activation at 10 µM [1, 13]: -23%; viability at 0.1 µM (expanded OPCs; [19]): 82.2%; viability at 1 µM (expanded OPCs; [20]): 87%; viability at 10 µM (expanded OPCs; [21]): 97.4%"
